Experimental data published in US8497283B2, “Autotaxin inhibitors” (Merck Patent GmbH, priority 2009, dated 2013).

Molecular target: T1, recombinant autotaxin (Homo sapiens, UniProt Q13822)
T1 construct: made in house; host or cells: Hi5 insect cells (baculovirus)
Experiment: Autotaxin assay (Amplex Red fluorescence, LPC substrate)
Assay type: biochemical
Conditions: percent of uninhibited control (100%) at 1E−05 M compound
Description: Autotaxin activity is measured indirectly by means of Amplex Red Reagent. In this course, Amplex Red is measured as fluorogenic indicator for generated H2O2. Autotaxin converts substrate lysophosphatidylcholine (LPC) to phosphocholine and lysophosphatidylic acid (LPA). After the conversion phosphocholine is reacted with alkaline phosphatase to obtain inorganic phosphate and choline. During the next step choline is oxidized with choline oxidase to yield betaine, whereby H2O2 is generated. H2O2 reacts with Amplex Red Reagent in the presence of peroxidase (Horseradish peroxidase) in an 1:1 stochiometry and yields highly fluorescent resorufin. The generated fluorescence is measured in a reaction-dependent kinetic mode in order to enable subtraction of fluorescence signals of possible other fluorescent compounds that are not part of the reaction from total measured fluorescence.
1.5 μl of a standard solution or of the compounds of the invention are dissolved in 20 mM Hepes pH 7.2 with maximally 7.7% DMSO in individual concentrations. The resulting solution is pre-incubated together with 10 μl (16 ng) of highly purified recombinant autotaxin in a black 384-hole microtiter plate for 30 min at 22° C.
Thereafter, the reaction is started through the addition of 5 μl L-a-lysophosphatidyl-choline (LPC), whereby the final concentration of LPC is 75 μM. The mixture is incubated for 90 min. at 37° C. After the incubation Amplex Red Reagent, peroxidase (Horseradish peroxidase) and choline oxidase are added. The fluorescence is immediately measured at a wavelength of 612 nm with an excitation wavelength of 485 nm in a “Tecan Ultra multimode” fluorescence reader. The activity of autotaxin is indirectly calculated via the amount of detected generated H2O2.
For IC50 analysis, ten serial 1:3 dilutions starting at 30 μM for each compound were run in duplicates.
IC50 values were calculated on normalized data. For normalization, control wells were added to each assay plate and the signal of uninhibited control wells was set to 100%, whereas the signal inhibited by 500 μM C14 LPA, (Avanti Polar Lipids, Cat#857120P) was set to 0%. Curves were fitted and IC50 values calculated by the following model using proprietory analysis software: Y=Bottom+(100−Bottom)/(1+10^((Log IC50−X)*HillSlope))
Where X is the logarithm of concentration. Y is the response;
Y starts at Bottom and goes to Top with a sigmoid shape.
Protein: Recombinant autotaxin (baculoviral Hi5 expression)
Substrate: L-a-lysophosphatidyl choline (chicken egg); Avanti Polar Lipids #830071P
Standard: C14 LPA, Avanti Polar Lipids, Cat#857120P
Detection Reagent Amplex Red Reagent; Invitrogen #A12222; dissolved in 1.923 ml of DMSO peroxidase Type VI-A (horseradish), Sigma #P6782; dissolved in 7.45 ml of test buffer, Choline Oxidase; Sigma #C5896; dissolved in 2.47 ml test buffer
Detection Reagent Mix: 1:100 dilution of Amplex Red Regent in test buffer
Test buffer: 200 mM Tris-HCl, Merck, Cat #1.08219, pH 7.9; 0.1% BSA, lipid free, Roche Cat#775835

Row | Compound | % CTRL (1E−05) [%]
1 | O=C(NCc1ccc(Cl)cc1F)c1[nH]nc2c1CCN(C(=O)c1ccc3[nH]nnc3c1)C2 [Compound 46, 6-(1H-Benzotriazole-5-carbonyl)-4,5,6,7-tetrahydro-2H-pyrazolo[3,4-c]pyridine-3-carboxylic acid 4-chloro-2-fluoro-benzylamide] | 76
2 | O=C(NC(CO)Cc1ccc(Cl)cc1)c1[nH]nc2c1CCN(C(=O)c1ccc3[nH]nnc3c1)C2 (stereo not drawn) [Compound 40, 6-(1H-Benzotriazole-5-carbonyl)-4,5,6,7-tetrahydro-2H-pyrazolo[3,4-c]pyridine-3-carboxylic acid [2-(4-chloro-phenyl)-1-hydroxymethyl-ethyl]-amide] | 73
3 | O=C(Nc1ccc(C(F)(F)F)cc1)Nc1nc2ccc(C(=O)Nc3ccc4[nH]c(=O)oc4c3)cc2s1 [Compound 30, 2-[3-(4-Trifluoromethyl-phenyl)-ureido]-benzothiazole-6-carboxylic acid (2-oxo-2,3-dihydro-benzooxazol-6-yl)-amide] | 93
4 | O=C(Nc1ccc(Cl)cc1)Nc1nc2ccc(C(=O)Nc3ccc4[nH]c(=O)oc4c3)cc2s1 [Compound 31, 2-[3-(4-Chloro-phenyl)-ureido]-benzothiazole-6-carboxylic acid (2-oxo-2,3-dihydro-benzooxazol-6-yl)-amide] | 94
5 | COc1ccccc1CNC(=O)c1[nH]nc2c1CCN(C(=O)c1ccc3[nH]nnc3c1)C2 [Compound 41, 6-(1H-Benzotriazole-5-carbonyl)-4,5,6,7-tetrahydro-2H-pyrazolo[3,4-c]pyridine-3-carboxylic acid 2-methoxy-benzylamide] | 66

Same assay, conditions: ten serial 1:3 dilutions starting at 30 μM, duplicates; 75 μM LPC; values given as upper bounds

Row | Compound | IC50 [µM]
6 | O=C(NCc1cc(Cl)ccc1Cl)c1[nH]nc2c1CCN(C(=O)c1ccc3[nH]nnc3c1)C2 [Compound 38, 6-(1H-Benzotriazole-5-carbonyl)-4,5,6,7-tetrahydro-2H-pyrazolo[3,4-c]pyridine-3-carboxylic acid 2,5-dichloro-benzylamide] | < 10
7 | NC(=O)c1c(NC(=O)CCc2ccc(Cl)cc2)sc2c1CCN(C(=O)c1ccc3[nH]nnc3c1)C2 [Compound 5, 6-(1H-Benzotriazole-5-carbonyl)-2-[3-(4-chloro-phenyl)-propionylamino]-4,5,6,7-tetrahydro-thieno[2,3-c]pyridine-3-carboxylic acid amide] | < 1
8 | O=C(Nc1ccc2[nH]nnc2c1)c1[nH]nc2c1CCN(C(=O)OCc1ccc(C(F)(F)F)c(Cl)c1)C2 [Compound 54, 3-(1H-Benzotriazol-5-ylcarbamoyl)-2,4,5,7-tetrahydro-pyrazolo[3,4-c]pyridine-6-carboxylic acid 3-chloro-4-trifluoromethyl-benzyl ester] | < 10
9 | O=C(Nc1ccc2[nH]nnc2c1)c1[nH]nc2c1CCN(C(=O)OCc1ccc(OC(F)(F)F)c(Cl)c1)C2 [Compound 58, 3-(1H-Benzotriazol-5-ylcarbamoyl)-2,4,5,7-tetrahydro-pyrazolo[3,4-c]pyridine-6-carboxylic acid 3-chloro-4-trifluoromethoxy-benzyl ester] | < 1
10 | NC(=O)c1c(NC(=O)Cc2ccc(Cl)cc2F)sc2c1CCN(C(=O)Cc1cccnc1)C2 [Compound 22, 2-[2-(4-Chloro-2-fluoro-phenyl)-acetylamino]-6-(2-pyridin-3-yl-acetyl)-4,5,6,7-tetrahydro-thieno[2,3-c]pyridine-3-carboxylic acid amide] | < 10
11 | NC(=O)c1c(NC(=O)Nc2ccc(Cl)cc2)sc2c1CCN(C(=O)c1ccc3[nH]nnc3c1)C2 [Compound 1, 6-(1H-Benzotriazole-5-carbonyl)-2-[3-(4-chloro-phenyl)-ureido]-4,5,6,7-tetrahydro-thieno[2,3-c]pyridine-3-carboxylic acid amide] | < 1
12 | O=C(NCc1cc(Cl)cc(Cl)c1)c1[nH]nc2c1CCN(C(=O)c1ccc3[nH]nnc3c1)C2 [Compound 33, 6-(1H-Benzotriazole-5-carbonyl)-4,5,6,7-tetrahydro-2H-pyrazolo[3,4-c]pyridine-3-carboxylic acid 3,5-dichloro-benzylamide] | < 10
